The assay deals with T1, E. coli Pth1 (Escherichia coli, UniProt P0A7D1).
T1 construct: gene pth; wild type, 15N-labelled, expressed in E. coli W3110, purified on His-Trap FF (tag not described), 21 kDa monomer
The experiment in a line: 1H-15N HSQC NMR titration, chemical shift perturbation mapping. To be noted: 20 mM Bis-Tris, 100 mM NaCl, 2 mM TCEP, pH 6.6, 25 °C; 200 uM 15N Pth1; ligand:protein up to 64:1; site opposite the substrate binding face.

The text below walks through data of PMC3856088, “Small Molecule Binding, Docking, and Characterization of the Interaction between Pth1 and Peptidyl-tRNA” (International Journal of Molecular Sciences, 2013).

T1 sequence (P0A7D1 2-194): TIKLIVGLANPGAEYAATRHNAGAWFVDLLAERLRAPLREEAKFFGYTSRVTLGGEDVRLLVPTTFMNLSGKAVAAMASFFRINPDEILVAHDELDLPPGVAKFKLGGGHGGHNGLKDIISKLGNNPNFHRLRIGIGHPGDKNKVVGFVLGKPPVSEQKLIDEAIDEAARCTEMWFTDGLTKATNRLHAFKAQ

Consider `c1cc2c(cc1CN1CCNCC1)OCO2` [piperonylpiperazine], for which the “1H-15N HSQC NMR titration, chemical shift perturbation mapping” value is “The binding of piperonylpiperazine to wild type E. coli Pth1 was studied by NMR spectroscopy”.
